Results on 12 compounds are retold here after US12247031B2, “Cyclobutyl pyrazolopyrimidine PDE9 inhibitors” (Merck Sharp & Dohme LLC, priority 2018, dated 2025).

For this assay, the target named is Human PDE9 (PDE9A2) (Homo sapiens (Human), UniProt O76083). Description: PDE9 IMAP fluorescence polarization assay. The assay is classed as biochemical. Particulars: human PDE9A2, FAM-cGMP substrate 50 nM, IMAP FP, apparent inhibition constant. As for the experimental part:
The activity of the compounds in accordance with the present invention as PDE9 inhibitors may be readily determined without undue experimentation using a fluorescence polarization (FP) methodology that is well known in the art (Huang, W., et al., J. Biomol Screen. 2002, 7: 215).
In a typical experiment the PDE9 inhibitory activity of the compounds of the present invention was determined in accordance with the following experimental method.
Human PDE9 (PDE9A2, GenBank Accession No. NM_001001567), full length with N-terminal GST tag, was purchased from BPS Bioscience. The fluorescence polarization assay for cyclic nucleotide phosphodiesterases was performed using an IMAP® FP kit supplied by Molecular Devices, Sunnyvale, CA (product #R8139). IMAP® technology has been applied previously to phosphodiesterase assays (Huang, W., et al., J. Biomol Screen. 2002, 7: 215).
Fluorescence polarization (mP) was calculated from the parallel (S) and perpendicular (P) fluorescence of each sample well and the analogous values for the median control well, containing only substrate (So and Po), using the following equation: Polarization (mP)=1000*(S/So−P/Po)/(S/So+P/Po).
Dose-inhibition profiles for each compound were characterized by fitting the mP data to a four-parameter equation given below. The apparent inhibition constant (KI), the maximum inhibition at the low plateau relative to “100% Inhibition Control” (Imax; e.g. 1=>same as this control), the minimum inhibition at the high plateau relative to the “0% Inhibition Control” (Imin, e.g. 0=>same as the no drug control) and the Hill slope (nH) are determined by a non-linear least squares fitting of the mP values as a function of dose of the compound using an in-house software based on the procedures described by Mosser et al., JALA. 2003, 8: 54-63, using the following equation: […]
A general note: Polarisation of emitted light reports the rotation of a fluorescent probe.
As for `CC(C1CCOCC1)n1nc(C#N)c2c(=O)[nH]c(C3CCC3n3cc(C#N)cn3)nc21` (single isomer, unassigned) [Example 48, 6-(2-(4-cyano-1H-pyrazol-1-yl)cyclobutyl)-4-oxo-1-(1-(tetrahydro-2H-pyran-4-yl)ethyl)-4,5-dihydro-1H-pyrazolo[3,4-d]pyrimidine-3-carbonitrile], the Ki worked out at 366 nM.

For the compound `C[C@@H](c1ccc(C(F)(F)F)nc1)n1nc(C#N)c2c(=O)[nH]c(C3CCC3c3cc4n(n3)CCC4)nc21` (stereo partly drawn) [Example 12, 6-(2-(5,6-dihydro-4H-pyrrolo[1,2-b]pyrazol-2-yl)cyclobutyl)-4-oxo-1-((S)-1-(6-(trifluoromethyl)pyridin-3-yl)ethyl)-4,5-dihydro-1H-pyrazolo[3,4-d]pyrimidine-3-carbonitrile], the Ki amounted to 608 nM. Consider `C[C@@H](c1ccc(C(F)(F)F)nc1)n1nc(C#N)c2c(=O)[nH]c(C3CCC3c3cncnc3)nc21` (stereo partly drawn) [Example 22, 4-oxo-6-(2-(pyrimidin-5-yl)cyclobutyl)-1-((S)-1-(6-(trifluoromethyl)pyridin-3-yl)ethyl)-4,5-dihydro-1H-pyrazolo[3,4-d]pyrimidine-3-carbonitrile], for which the Ki is 608 nM.

Consider `C[C@@H](c1ccc(C(F)(F)F)nc1)n1nc(C#N)c2c(=O)[nH]c(C3CCC3c3cncnc3)nc21` (stereo partly drawn) [Example 23, 4-oxo-6-(2-(pyrimidin-5-yl)cyclobutyl)-1-((S)-1-(6-(trifluoromethyl)pyridin-3-yl)ethyl)-4,5-dihydro-1H-pyrazolo[3,4-d]pyrimidine-3-carbonitrile], for which the Ki was determined as 608 nM.

With `CC(c1ccc(C(F)(F)F)nc1)n1nc(C#N)c2c(=O)[nH]c(C3CCC3N3CCOCC3=O)nc21` (stereo not drawn) [Example 30, 4-oxo-6-(2-(3-oxomorpholino)cyclobutyl)-1-(1-(6-(trifluoromethyl)pyridin-3-yl)ethyl)-4,5-dihydro-1H-pyrazolo[3,4-d]pyrimidine-3-carbonitrile], the Ki is 608 nM. For the compound `C[C@@H](c1ccc(C(F)(F)F)nc1)n1nc(C#N)c2c(=O)[nH]c(C3CCC3n3cc(C(F)(F)F)cn3)nc21` (stereo partly drawn) [Example 31, 4-oxo-6-(2-(4-(trifluoromethyl)-1H-pyrazol-1-yl)cyclobutyl)-1-((S)-1-(6-(trifluoromethyl)pyridin-3-yl)ethyl)-4,5-dihydro-1H-pyrazolo[3,4-d]pyrimidine-3-carbonitrile], the Ki came to 0.399 nM. `C[C@@H](c1ccc(C(F)(F)F)nc1)n1nc(C#N)c2c(=O)[nH]c(C3CCC3n3ccc(C(F)(F)F)n3)nc21` (stereo partly drawn) [Example 32, 4-oxo-6-(2-(3-(trifluoromethyl)-1H-pyrazol-1-yl)cyclobutyl)-1-((S)-1-(6-(trifluoromethyl)pyridin-3-yl)ethyl)-4,5-dihydro-1H-pyrazolo[3,4-d]pyrimidine-3-carbonitrile]: the Ki came to 608 nM. Turning to `CC(C1CCOCC1)n1nc(C#N)c2c(=O)[nH]c(C3CCC3n3cccn3)nc21` (stereo not drawn) [Example 40, 6-(2-(1H-pyrazol-1-yl)cyclobutyl)-4-oxo-1-(1-(tetrahydro-2H-pyran-4-yl)ethyl)-4,5-dihydro-1H-pyrazolo[3,4-d]pyrimidine-3-carbonitrile], the Ki stood at 225 nM.

For the compound `CC(C1CCOCC1)n1nc(C#N)c2c(=O)[nH]c(C3CCC3n3cc(C#N)cn3)nc21` (stereo not drawn) [Example 41, 6-(2-(4-cyano-1H-pyrazol-1-yl)cyclobutyl)-4-oxo-1-(1-(tetrahydro-2H-pyran-4-yl)ethyl)-4,5-dihydro-1H-pyrazolo[3,4-d]pyrimidine-3-carbonitrile], the Ki worked out at 608 nM.

As to `C[C@@H](c1ccc(C(F)(F)F)nc1)n1nc(C#N)c2c(=O)[nH]c(C3CCC3n3cc(C(F)(F)F)cn3)nc21` (stereo partly drawn) [Example 43, 4-oxo-6-(2-(4-(trifluoromethyl)-1H-pyrazol-1-yl)cyclobutyl)-1-((S)-1-(6-(trifluoromethyl)pyridin-3-yl)ethyl)-4,5-dihydro-1H-pyrazolo[3,4-d]pyrimidine-3-carbonitrile], the Ki worked out at 4.75 nM.

Take `CC(c1ccc(C(F)(F)F)nc1)n1nc(C#N)c2c(=O)[nH]c(C3CCC3n3cc(C(F)F)cn3)nc21` (stereo not drawn) [Example 45, 6-(2-(4-(difluoromethyl)-1H-pyrazol-1-yl)cyclobutyl)-4-oxo-1-(1-(6-(trifluoromethyl)pyridin-3-yl)ethyl)-4,5-dihydro-1H-pyrazolo[3,4-d]pyrimidine-3-carbonitrile]: the Ki worked out at 115 nM. With `CC(C1CCOCC1)n1nc(C#N)c2c(=O)[nH]c(C3CCC3n3cccn3)nc21` (stereo not drawn) [Example 46, 6-(2-(1H-pyrazol-1-yl)cyclobutyl)-4-oxo-1-(1-(tetrahydro-2H-pyran-4-yl)ethyl)-4,5-dihydro-1H-pyrazolo[3,4-d]pyrimidine-3-carbonitrile], the Ki was determined as 608 nM.
